Measurements published in patent US20090069394A1, “CANCER TREATMENT WITH EPOTHILONES” (priority 2003, published 2009).

Tests used:
[1] = Tolerability (body weight) in KB-8511 tumor-bearing mice; format: in vivo, BALB/c nude mice
Experimental: The experimental details of the human tumor xenograft model has been described previously. A maximum of 10 female nude mice are kept under sterile conditions (type III cage, in an OHC zone) with free access to food and water. KB-8511 tumors are established by subcutaneous injection of cells (2×10^6 cells in 100 μL PBS). The resulting tumors (at a size of 700 to 1000 mm3) are passaged in vivo at least 3 times prior to chemotherapy experimentation, and tumor-bearing mice are treated with Adriablastin/EÊ at 3 mg/kg (10 mL/kg) every week, in order to keep high levels of pgp170 expression. Tumor fragments of about 25 mg are implanted subcutaneously into the left flank of the animals with a 13 gauge trocar needle under Forene/EÊ (Abbott, Switzerland) anesthesia. Unless otherwise stated, treatments are always initiated when the mean tumor volume in each group reached 100 mm3. […] 7,11-Dihydroxy-8,8,10,12,16-pentamethyl-[1-methyl-2-(2-methylsulfanyl-thiazol-4-yl)-vinyl]-4,17-dioxa-bicyclo[14.1.0]heptadecane-5,9-dione is administered i.v. and tumor volumes and body weights are measured twice per week. Tumor volumes are determined by using callipers for measurement of longest (considered as Length) and shortest (considered as Diameter) dimensions of each tumors, and according to the formula Length×Diameter2×δ/6. Tumor growth and body weights are monitored twice weekly. […]

[2] = parameters: species or system BALB/c nude mice; settings: mouse, in vivo
Experimental: BALB/c nude mice bearing KB-8511 xenograft tumors (initial volume of 250 mm3) were treated using various loading and maintenance dosage regimens to probe the validity of such regimens and to validate the predictions obtained with the PK-PD model. […] The kinetics of body weight loss on some of the tested loading and maintenance dosage regimens (L/MDR) were more benign (i.e. less fluctuating) than those observed on the corresponding fixed dosage regimens (FDR). […] It is concluded that the loading and maintenance dosing concept, by taking into account the very slow elimination rate of NVP-ABJ879, appears to represent an alternative dosing schemeunder which this drug can be dosed weekly.

[3] = tested on: Human epidermoid carcinoma KB-8511 cells; assay: KB-8511 human tumor xenograft model, loading/maintenance dosage regimens; format: in vivo, BALB/c nude mice
Experimental: 7,11-Dihydroxy-8,8,10,12,16-pentamethyl-3-[1-methyl-2-(2-methylsulfanyl-thiazol-4-yl)-vinyl]-4,17-dioxa-bicyclo[14.1.0]heptadecane-5,9-dione is dissolved in PEG300 and immediately diluted with saline (0.9% w/v NaCl) to the desired final concentration to be administered to mice as. The injected volume is 10 ml/kg i.v. Formulations are prepared immediately before use. Adriablastin/EÊ (Pharmacia and Upjohn) is purchased as a 2 mg/mL solution, and diluted with saline (0.9% NaCl) to prepare the 0.3 mg/mL solution used to treat animals. Taxol. (Bristol-Myers Squibb AG) is purchased as a 6 mg/ml solution, and diluted with saline to prepare the 1.5 mg/ml solution used to treat animals.
Human epidermoid carcinoma KB-8511 cells are obtained from Dr R. M. Baker, Roswell, Park Memorial Institute (Buffalo, N.Y., USA). Because of pgp170 overexpression, these cells are multi-drug resistant (Akiyama, et al 1985). KB-8511 cells are cultured as previously described.
The experimental details of the human tumor xenograft model has been described previously. A maximum of 10 female nude mice are kept under sterile conditions (type III cage, in an OHC zone) with free access to food and water. […] 7,11-Dihydroxy-8,8,10,12,16-pentamethyl-[1-methyl-2-(2-methylsulfanyl-thiazol-4-yl)-vinyl]-4,17-dioxa-bicyclo[14.1.0]heptadecane-5,9-dione is administered i.v. and tumor volumes and body weights are measured twice per week. Tumor volumes are determined by using callipers for measurement of longest (considered as Length) and shortest (considered as Diameter) dimensions of each tumors, and according to the formula Length×Diameter2×δ/6. Tumor growth and body weights are monitored twice weekly. When mentioned, antitumor activity is expressed as TIC % (mean increase of tumor volumes of treated animals divided by the mean increase of tumor volumes of control animals multiplied by 100) and/or as Tumor Regression (Reg %), calculated as ((mean tumor volume at the start of treatment minus mean tumor volume)/mean tumor volume at the start of treatment)×100. […]

[4] = tested on: colorectal, renal, prostatic, pancreatic, gastric and brain cancers; settings: cited from earlier work
[5] = cited from earlier work

SMILES	tolerability (stabilization of the body weight loss) ([1]; loading and maintenance 1.5 mg/kg-0.5 mg/kg or 2.1 mg/kg-0.7 mg/kg, weekly i.v.)	kinetics of body weight loss ([1]; some loading and maintenance dosage regimens (L/MDR) versus corresponding fixed dosage regimens (FDR))	elimination rate [2]	tumor relapse ([3]; 1.5/0.5 mg/kg dosing)	antitumor activity where tolerability improved (dose optimization) ([3]; initial tumor volume 100 mm3, tolerability assessed on body weight change)	antitumor activity ([3]; loading and maintenance 1.5 mg/kg-0.5 mg/kg or 2.1 mg/kg-0.7 mg/kg, weekly i.v., initial tumor volume 250 mm3)	clinical activity as a single agent [4]	solubility in water [5]
CSc1nc(C=C(C)C2CC3OC3(C)CCCC(C)C(O)C(C)C(=O)C(C)(C)C(O)CC(=O)O2)cs1 (centres unmarked) [7,11-Dihydroxy-8,8,10,12,16-pentamethyl-3-[1-methyl-2-(2-methylsulfanyl-thiazol-4-yl)-vinyl]-4,17-dioxa-bicyclo[14.1.0]heptadecane-5,9-dione]	enhanced tolerability	more benign	very slow	tumor relapse was observed in some of the animals	reduced antitumor activity	strong antitumor activity	–	–
CC(=O)O[C@H]1C(=O)[C@@]2(C)[C@H]([C@H](OC(=O)c3ccccc3)[C@]3(O)C[C@H](OC(=O)[C@H](O)[C@@H](NC(=O)c4ccccc4)c4ccccc4)C(C)=C1C3(C)C)[C@]1(OC(C)=O)CO[C@@H]1C[C@@H]2O [TAXOL®, paclitaxel]	–	–	–	–	–	–	poorly active clinically	extremely low
